According to PMC7782793, “Hydroxamic acid-modified peptide microarrays for profiling isozyme-selective interactions and inhibition of histone deacetylases” (Nature Communications, 2021):
Where “and” joins values, the source holds several entries; their conditions need not be identical. Equal entries are not always repeated. Marks after values point to notes of the source that are not given here. Non-standard residues stand in square brackets, D forms with d. Residues, ends and D or L forms follow the SMILES beside them. *: point of attachment. Asu = N[C@@H](CCCCCC(=O)O)C(=O)O; NHOH = ON*

Tests used:
HDAC1 [1] = molecular target: T1, HDAC1 (Homo sapiens, UniProt Q13547); experiment: Recombinant HDAC µSPOT microarray binding assay;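 also: slides with spotted peptides incubated with six HDAC concentrations in HEPES buffer pH 7.4, spot intensities fitted by four-parameter logistic, EC50 as enzyme concentration giving half-maximal binding signal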
T1 construct: HDAC1 (full length, C-terminal His tag, C-terminal FLAG tag, BPS Bioscience, cat. #: 50051); FLAG (C); purchased BPS Bioscience 50051
T1 sequence (Q13547 whole entry): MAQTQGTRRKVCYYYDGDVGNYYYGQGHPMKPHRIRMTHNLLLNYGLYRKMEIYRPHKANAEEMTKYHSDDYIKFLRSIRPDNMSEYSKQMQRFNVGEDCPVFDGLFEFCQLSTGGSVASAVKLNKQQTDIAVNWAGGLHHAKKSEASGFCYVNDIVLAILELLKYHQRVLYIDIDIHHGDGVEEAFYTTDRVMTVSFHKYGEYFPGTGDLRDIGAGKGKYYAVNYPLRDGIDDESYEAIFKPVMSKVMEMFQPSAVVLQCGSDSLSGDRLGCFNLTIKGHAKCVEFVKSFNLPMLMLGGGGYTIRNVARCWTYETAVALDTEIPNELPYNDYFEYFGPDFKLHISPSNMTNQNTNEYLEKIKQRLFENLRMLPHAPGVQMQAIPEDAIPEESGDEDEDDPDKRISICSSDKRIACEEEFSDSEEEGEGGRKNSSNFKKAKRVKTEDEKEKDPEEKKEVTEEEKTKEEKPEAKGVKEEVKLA

HDAC3/NCoR2 [2] = molecular target: T2, HDAC3/NCoR2 (Homo sapiens, UniProt O15379); experiment: Recombinant HDAC µSPOT microarray binding assay;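 also: peptide spots on cellulose slides incubated with rising HDAC enzyme concentrations, imaged together, four-parameter logistic fit, EC50 is enzyme concentration giving half-maximal binding signal, two experiments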
T2 construct: HDAC3/NCoR2 (full length, C-terminal His tag, NCoR2 N-terminal GST tag); purchased BPS Bioscience 50003
T2 sequence (O15379 whole entry): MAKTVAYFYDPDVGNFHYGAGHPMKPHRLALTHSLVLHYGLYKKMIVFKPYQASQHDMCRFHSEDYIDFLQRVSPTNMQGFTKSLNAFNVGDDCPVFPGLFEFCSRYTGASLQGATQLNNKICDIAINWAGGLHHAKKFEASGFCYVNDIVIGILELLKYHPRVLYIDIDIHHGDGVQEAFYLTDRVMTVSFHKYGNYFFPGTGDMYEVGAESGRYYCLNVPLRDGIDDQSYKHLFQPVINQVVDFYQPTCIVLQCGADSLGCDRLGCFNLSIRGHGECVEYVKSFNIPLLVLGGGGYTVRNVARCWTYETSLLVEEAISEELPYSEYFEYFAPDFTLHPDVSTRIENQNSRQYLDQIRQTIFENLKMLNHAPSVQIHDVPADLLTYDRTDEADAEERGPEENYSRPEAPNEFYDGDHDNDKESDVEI
T2 sequence (Q9Y618 389-480 partner limits assumed): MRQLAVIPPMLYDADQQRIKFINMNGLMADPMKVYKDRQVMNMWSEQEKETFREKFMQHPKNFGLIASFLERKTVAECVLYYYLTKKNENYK

HDAC8 [3] = molecular target: T3, HDAC8 (Homo sapiens, UniProt Q9BY41); experiment: Recombinant HDAC µSPOT microarray binding assay;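 also: peptide µSPOT slides incubated with varying HDAC enzyme concentrations, imaged signal intensity fitted by four-parameter variable-slope regression, EC50 is enzyme concentration giving half-maximal binding, pH 7.4 HEPES buffer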
T3 construct: HDAC8 (full length, C-terminal His tag, BPS Bioscience, cat. #: 50008); purchased BPS Bioscience 50008
T3 sequence (Q9BY41 1-377): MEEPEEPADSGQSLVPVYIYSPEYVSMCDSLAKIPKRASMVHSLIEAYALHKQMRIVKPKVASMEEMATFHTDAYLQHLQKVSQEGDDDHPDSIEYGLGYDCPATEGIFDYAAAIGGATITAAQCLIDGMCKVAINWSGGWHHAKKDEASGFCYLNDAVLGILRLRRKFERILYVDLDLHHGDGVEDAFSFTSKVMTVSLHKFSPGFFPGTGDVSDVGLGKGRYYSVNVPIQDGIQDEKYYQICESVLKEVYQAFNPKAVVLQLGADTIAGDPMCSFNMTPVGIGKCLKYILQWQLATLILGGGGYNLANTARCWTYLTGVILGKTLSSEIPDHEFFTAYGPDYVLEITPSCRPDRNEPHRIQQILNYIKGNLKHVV
Experimental: Experiments were performed twice, data were obtained with Array Analyze software (Active Motif), and data analysis and representation were performed with the GraphPad Prism 7 software. Outliers were curated manually and data were fitted to nonlinear regression [log(agonist) vs. response—variable slope (four parameters)]. […] Non-sigmoidal curves were denoted as not determined (N.D.) The pEC50 values were determined as the concentration of HDAC enzyme required for half-maximal binding signal.

HDAC1 [4] = molecular target: T1, HDAC1; experiment: HDAC inhibition assay (fluorogenic, Ac-Leu-Gly-Lys(Ac)-AMC); format: biochemical; settings: for HDAC1 dose-response data (relative enzyme activity), Fig. 6 + S. Fig. 10: duplicate columns
HDAC2 = molecular target: T4, HDAC2 (Homo sapiens, UniProt Q92769); experiment: as above; format: biochemical; settings: for HDAC2 dose-response data (relative enzyme activity), Fig. 6 + S. Fig. 10: duplicate columns
T4 construct: HDAC2 (full length, C-terminal His tag, BPS Bioscience, cat. #: 50002); purchased BPS Bioscience 50002
T4 sequence (Q92769 whole entry): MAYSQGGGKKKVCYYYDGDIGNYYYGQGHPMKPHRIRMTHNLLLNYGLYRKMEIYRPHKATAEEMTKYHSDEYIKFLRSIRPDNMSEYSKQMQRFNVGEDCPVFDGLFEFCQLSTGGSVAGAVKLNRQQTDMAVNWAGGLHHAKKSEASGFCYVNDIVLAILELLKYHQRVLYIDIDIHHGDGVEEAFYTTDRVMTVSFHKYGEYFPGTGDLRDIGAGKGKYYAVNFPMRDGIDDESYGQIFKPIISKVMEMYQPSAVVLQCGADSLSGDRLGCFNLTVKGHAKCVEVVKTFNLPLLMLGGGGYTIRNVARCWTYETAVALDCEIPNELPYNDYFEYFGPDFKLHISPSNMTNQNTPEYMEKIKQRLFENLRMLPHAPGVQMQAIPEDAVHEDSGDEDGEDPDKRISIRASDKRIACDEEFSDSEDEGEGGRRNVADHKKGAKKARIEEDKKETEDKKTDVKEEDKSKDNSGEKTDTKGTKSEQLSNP

HDAC3/NCoR2 [5] = molecular target: T2, HDAC3/NCoR2; experiment: as above; format: biochemical; settings: for HDAC3 dose-response data (relative enzyme activity), Fig. 6 + S. Fig. 10: duplicate columns
HDAC8 [6] = molecular target: T3, HDAC8; experiment: HDAC inhibition assay (fluorogenic, Ac-Leu-Gly-Lys(Tfa)-AMC); format: biochemical; settings: for HDAC8 dose-response data (relative enzyme activity, replicate values), Fig. 6 + S. Fig. 10: two replicate columns per inhibitor; for HDAC8 dose-response data (relative enzyme activity), Fig. 6 + S. Fig. 10: duplicate columns
HDAC4 = molecular target: T5, HDAC4 (Homo sapiens, UniProt P56524); experiment: as above; format: biochemical; settings: 2 internal replicates
T5 construct: purchased BPS Bioscience 50004
T5 sequence (P56524 627-1084): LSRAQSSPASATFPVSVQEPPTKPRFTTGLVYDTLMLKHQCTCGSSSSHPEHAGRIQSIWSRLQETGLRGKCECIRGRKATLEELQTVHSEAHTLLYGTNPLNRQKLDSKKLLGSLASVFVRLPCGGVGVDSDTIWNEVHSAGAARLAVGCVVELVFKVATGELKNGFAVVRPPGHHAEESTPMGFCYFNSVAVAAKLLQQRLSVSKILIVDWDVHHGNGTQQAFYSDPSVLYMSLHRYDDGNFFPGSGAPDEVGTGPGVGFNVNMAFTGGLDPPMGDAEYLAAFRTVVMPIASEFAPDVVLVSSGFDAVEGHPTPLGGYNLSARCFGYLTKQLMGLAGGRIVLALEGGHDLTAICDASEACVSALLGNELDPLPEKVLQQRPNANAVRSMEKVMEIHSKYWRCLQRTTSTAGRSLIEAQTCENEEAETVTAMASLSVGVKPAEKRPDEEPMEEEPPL

[7] = log[inhibitor(M)] -10,5850266520292*, whole line marked with asterisks

CC(=O)N[C@@H](C)C(=O)N1CCC[C@H]1C(=O)N[C@@H](C)C(=O)N1CCC[C@H]1C(=O)N[C@@H](CCCCN)C(=O)N[C@@H](CCCCCC(=O)NO)C(=O)NCC(=O)N[C@@H](CO)C(=O)N[C@@H](CCCCN)C(=O)N[C@@H](CCCCN)C(=O)N[C@@H](C)C(=O)N[C@H](C(=O)N[C@H](C(=O)N[C@@H](CCCCN)C(=O)N[C@@H](C)C(=O)N[C@@H](CCC(N)=O)C(=O)N[C@@H](Cc1c[nH]c2ccccc12)C(N)=O)[C@@H](C)O)C(C)C [10a] (Ac-APAPK[Asu](NHOH)GSKKAVTKAQW-NH2)
EC50 (HDAC1 [1]): 8.71 nM | EC50 (HDAC3/NCoR2 [2]): 3.09 nM | EC50 (HDAC8 [3]): > 25.1 nM | Ki (HDAC1 [4]): 111 ± 2 nM | HDAC1 dose-response data (relative enzyme activity), Fig. 6 + S. Fig. 10 (HDAC1 [4]; log[inhibitor(M)] -4.30103): 5.334 and 4.212 | HDAC1 dose-response data (relative enzyme activity), Fig. 6 + S. Fig. 10 (HDAC1 [4]; log[inhibitor(M)] -5.69897): 29.499 and 30.3493 | HDAC1 dose-response data (relative enzyme activity), Fig. 6 + S. Fig. 10 (HDAC1 [4]; log[inhibitor(M)] -6.39794): 63.3422 and 57.5642 | HDAC1 dose-response data (relative enzyme activity), Fig. 6 + S. Fig. 10 (HDAC1 [4]; log[inhibitor(M)] -7.09691): 92.4396 and 86.4688 | HDAC1 dose-response data (relative enzyme activity), Fig. 6 + S. Fig. 10 (HDAC1 [4]; log[inhibitor(M)] -7.79588): 116.265 and 84.5085 | HDAC1 dose-response data (relative enzyme activity), Fig. 6 + S. Fig. 10 (HDAC1 [4]; log[inhibitor(M)] -8.49485): 113.205 and 105.123 | HDAC1 dose-response data (relative enzyme activity), Fig. 6 + S. Fig. 10 (HDAC1 [4]; log[inhibitor(M)] -9.19382): 116.621 and 108.226 | HDAC1 dose-response data (relative enzyme activity), Fig. 6 + S. Fig. 10 (HDAC1 [4]; log[inhibitor(M)] -9.89279): 112.611 and 105.771 | HDAC1 dose-response data (relative enzyme activity), Fig. 6 + S. Fig. 10 (HDAC1 [4]; [7]): 102,7345* and 100,1809* | HDAC2 dose-response data (relative enzyme activity), Fig. 6 + S. Fig. 10 (HDAC2; log[inhibitor(M)] -5): 21.842 and 17.4503 | HDAC2 dose-response data (relative enzyme activity), Fig. 6 + S. Fig. 10 (HDAC2; log[inhibitor(M)] -5.69897): 44.183 and 59.677 | HDAC2 dose-response data (relative enzyme activity), Fig. 6 + S. Fig. 10 (HDAC2; log[inhibitor(M)] -7.79588): 120.227 and 109.311 | HDAC2 dose-response data (relative enzyme activity), Fig. 6 + S. Fig. 10 (HDAC2; [7]): 109,81* and 112,306* | Ki (HDAC2; resynthesized peptide in solution, Cheng-Prusoff, n = 2): 239 ± 4 nM | Ki (HDAC3/NCoR2 [5]): 51.2 ± 0.9 nM | HDAC3 dose-response data (relative enzyme activity), Fig. 6 + S. Fig. 10 (HDAC3/NCoR2 [5]; log[inhibitor(M)] -4.30103): 2.766 and 1.97 | HDAC3 dose-response data (relative enzyme activity), Fig. 6 + S. Fig. 10 (HDAC3/NCoR2 [5]; log[inhibitor(M)] -5): 10.2945 and 7.913 | HDAC3 dose-response data (relative enzyme activity), Fig. 6 + S. Fig. 10 (HDAC3/NCoR2 [5]; log[inhibitor(M)] -5.69897): 26.7937 and 20.8193 | HDAC3 dose-response data (relative enzyme activity), Fig. 6 + S. Fig. 10 (HDAC3/NCoR2 [5]; log[inhibitor(M)] -6.39794): 46.8605 and 38.5396 | HDAC3 dose-response data (relative enzyme activity), Fig. 6 + S. Fig. 10 (HDAC3/NCoR2 [5]; log[inhibitor(M)] -7.09691): 73.2021 and 63.7098 | HDAC3 dose-response data (relative enzyme activity), Fig. 6 + S. Fig. 10 (HDAC3/NCoR2 [5]; log[inhibitor(M)] -7.79588): 98.3444 and 77.95 | HDAC3 dose-response data (relative enzyme activity), Fig. 6 + S. Fig. 10 (HDAC3/NCoR2 [5]; log[inhibitor(M)] -8.49485): 104.594 and 95.6609 | HDAC3 dose-response data (relative enzyme activity), Fig. 6 + S. Fig. 10 (HDAC3/NCoR2 [5]; log[inhibitor(M)] -9.19382): 108.819 and 98.0987 | HDAC3 dose-response data (relative enzyme activity), Fig. 6 + S. Fig. 10 (HDAC3/NCoR2 [5]; log[inhibitor(M)] -9.89279): 107.136 and 105.407 | HDAC3 dose-response data (relative enzyme activity), Fig. 6 + S. Fig. 10 (HDAC3/NCoR2 [5]; [7]): 106,9896* and 85,1199* | Ki (HDAC8 [6]): 2240 ± 20 nM | HDAC8 dose-response data (relative enzyme activity, replicate values), Fig. 6 + S. Fig. 10 (HDAC8 [6]; Inhibitor conc [M] -8.49485 (log)): 108.857 and 102.18 | HDAC8 dose-response data (relative enzyme activity, replicate values), Fig. 6 + S. Fig. 10 (HDAC8 [6]; Inhibitor conc [M] -9.19382 (log)): 106.186 and 101.221 | HDAC8 dose-response data (relative enzyme activity, replicate values), Fig. 6 + S. Fig. 10 (HDAC8 [6]; Inhibitor conc [M] given as -7.09691 (log)): 102.611 and 104.497 | HDAC8 dose-response data (relative enzyme activity, replicate values), Fig. 6 + S. Fig. 10 (HDAC8 [6]; Inhibitor conc [M] given as -7.79588 (log)): 103.781 and 99.0423 | HDAC8 dose-response data (relative enzyme activity, replicate values), Fig. 6 + S. Fig. 10 (HDAC8 [6]; Inhibitor conc [M] given as -9.89279 (log)): 110.267 and 101.97 | HDAC8 dose-response data (relative enzyme activity), Fig. 6 + S. Fig. 10 (HDAC8 [6]; Inhibitor conc [M] -3.60206): 2.527 and 3.969 | HDAC8 dose-response data (relative enzyme activity), Fig. 6 + S. Fig. 10 (HDAC8 [6]; Inhibitor conc [M] -4.30103): 9.773 and 11.8218 | HDAC8 dose-response data (relative enzyme activity), Fig. 6 + S. Fig. 10 (HDAC8 [6]; Inhibitor conc [M] -5): 29.4256 and 37.404 | HDAC8 dose-response data (relative enzyme activity), Fig. 6 + S. Fig. 10 (HDAC8 [6]; Inhibitor conc [M] -5.69897): 62.2051 and 60.7878 | HDAC8 dose-response data (relative enzyme activity), Fig. 6 + S. Fig. 10 (HDAC8 [6]; Inhibitor conc [M] -6.39794): 91.1582 and 94.1836 | residual enzymatic activity relative to control wells (HDAC4; inhibitor 5 µM): 95.93 | remaining activity at 5 µM (HDAC4; inhibitor 5 µM, read-out: residual enzymatic activity relative to control wells): 100% | residual enzymatic activity relative to control wells (HDAC4; inhibitor 50 µM): 77.53 | remaining activity at 50 µM (HDAC4; inhibitor 50 µM, read-out: residual enzymatic activity relative to control wells): 80.4%
